Data from patent publication US5847092A (Zambon Group S.p.A., priority 1994, dated 1998).
Converted amounts (≈) assume the structure as drawn. Read-outs that look alike come from different tables or passages of the source.

How the values were obtained:
[1] = tested on: Streptococcus pyogenes C 203; test: In vivo antibacterial activity, experimental pulmonary infection in mouse; details: Streptococcus pyogenes, C203, ip, 240 h, intraperitoneal single dose, read-out: average protecting dose PD50
Method: The in vivo antibacterial activity of the compounds of formula (I), expressed as average protecting dose PD50 (mg/Kg), was evaluated by means of experimental pulmonary infection induced in mouse by Streptococcus pyogenes (example 23).
b) In vivo antibacterial activity
The therapeutical effectiveness, expressed as average protecting dose (PD50), of the considered compounds of formula (I) was evaluated by experimental pulmonary infection induced in mouse by Streptococcus pyogenesC 203.
Charles River albin mice (strain CD 1), of body weight comprised between 23-35 g, stabulated in groups of 6 for cage and normo-feeded with standard diet and water ad libitum were used. A suspension of S. pyogenes C 203 (corresponding about to 10^8 UFC) in tryptose broth (0.05 ml) was intranasally administered to each mouse anesthesized with a mixture of ethyl ether and chloroform.
The compounds under examination were intraperitoneally administered as a single dose, in 0.2% Tween suspension, 24 hours before or 1 hour after the infection.
Mice mortality observation was prolonged up to 10 days from the infection.
PD50 calculation, expressed as (mg/Kg), was carried out through the analysis of probit.
In vivo antibacterial activity, expressed as average protecting dose PD50 (mg/Kg), 24 hours before and 1 hour after the experimental pulmonary infection induced in mouse by Streptococcus pyogenes C 203, of the compounds 4, 10, 16-19, 21, 23, 26-27, 29-30, 33-35 and 38 and of the reference compounds Roxithromycin and Clarithromycin.

[2] = tested on: Streptococcus pneumoniae BS 4; test: In vitro antibacterial activity, MIC, broth microdilution; assay type: cell-based; details: Streptococcus pneumoniae, BS4; S. pneumoniae BS 4; MHB + 5% horse serum; 37° C., 18 hours; read-out: minimum inhibiting concentration MIC
Method: (§1) a) In vitro antibacterial activity The determination of the minimum inhibiting concentrations (MIC), with respect to Gram-positive and Gram-negative bacteria was carried out through the micromethod of gradual broth dilution in double series [National Committee for Clinical Laboratory Standards, 1990; Methods for dilution antimicrobial susceptibility tests for bacteria that grow aerobically; Approved standards […], Villanova, Pa.], by using Mueller Hinton Broth (MHB) as a culture medium. In the case of […] bacteria, horse serum at 5% (Streptococcus pneumoniae and Streptococcus pyogenes) was added to the medium. Roxithromycin and Clarithromycin [The Merck Index, XI Ed., No. 8253 and 2340, respectively] were used as reference macrolides. MIC, expressed as (μg/ml), were determined after incubation of the microplates at 37° C. for 18 hours, evaluating the lowest antibiotic concentration enabling the inhibition of bacterial development.

[3] = tested on: Staphylococcus aureus PV 14; test: as above; assay type: cell-based; details: Staphylococcus aureus, PV14; S. aureus PV 14; MHB; 37° C., 18 hours; read-out: minimum inhibiting concentration MIC
Method: as §1

[4] = tested on: Klebsiella pneumoniae ZC 2; test: as above; assay type: cell-based; details: Klebsiella pneumoniae, ZC2; K. pneumoniae ZC 2; MHB; 37° C., 18 hours; read-out: minimum inhibiting concentration MIC
Method: as §1

[5] = tested on: Escherichia coli ATCC 25922; test: as above; assay type: cell-based; details: Escherichia coli, ATCC25922; E. coli ATCC 25922; MHB; 37° C., 18 hours; read-out: minimum inhibiting concentration MIC
Method: as §1

[6] = tested on: Streptococcus pyogenes C 203; test: as above; assay type: cell-based; details: Streptococcus pyogenes, C203; S. pyogenes C 203; MHB + 5% horse serum; 37° C., 18 hours; read-out: minimum inhibiting concentration MIC
Method: as §1

[7] = tested on: Enterococcus faecalis ATCC 29212; test: as above; assay type: cell-based; details: Enterococcus faecalis, ATCC29212; E. faecalis ATCC 29212; MHB; 37° C., 18 hours; read-out: minimum inhibiting concentration MIC
Method: as §1

[8] = tested on: Streptococcus pneumoniae BS 3; test: as above; assay type: cell-based; details: Streptococcus pneumoniae, BS3; S. pneumoniae BS 3; MHB + 5% horse serum; 37° C., 18 hours; read-out: minimum inhibiting concentration MIC
Method: as §1

[9] = tested on: Streptococcus pyogenes A 26; test: as above; assay type: cell-based; details: Streptococcus pyogenes, A26; S. pyogenes A 26; MHB + 5% horse serum; 37° C., 18 hours; read-out: minimum inhibiting concentration MIC
Method: as §1

SMILES	ED50 ([1]; 1 hour after infection) [mg/kg]	ED50 ([1]; 24 hours before infection) [mg/kg]	MIC [2] [µg/mL]	MIC [3] [µg/mL]	MIC [4] [µg/mL]	MIC [5] [µg/mL]	MIC [6] [µg/mL]	MIC [7] [µg/mL]	MIC [8] [µg/mL]	MIC [9] [µg/mL]
CC[C@H]1OC(=O)[C@H](C)[C@@H](O[C@H]2C[C@@](C)(OC)[C@@H](O)[C@H](C)O2)[C@H](C)[C@@H](O[C@@H]2O[C@H](C)C[C@H](N(C)C)[C@H]2O)[C@](C)(O)C[C@@H](C)/C(=N\OCCNCCCCCNCc2ccccc2)[C@H](C)[C@@H](O)[C@]1(C)O [Compound 10, Erythromycin A (E)-9-[0-[2-[5-(phenylmethylamino)pentylamino]ethyl]oxime]]	2.36	5.8	0.0156	0.5 (≈ 0.517 µM)	16 (≈ 16.5 µM)	4 (≈ 4.14 µM)	0.0039	4 (≈ 4.14 µM)	0.0156	0.0078
CC[C@H]1OC(=O)[C@H](C)[C@@H](O[C@H]2C[C@@](C)(OC)[C@@H](O)[C@H](C)O2)[C@H](C)[C@@H](O[C@@H]2O[C@H](C)C[C@H](N(C)C)[C@H]2O)[C@](C)(O)C[C@@H](C)/C(=N\OCCNCCCCCCNCc2ccccc2C(F)(F)F)[C@H](C)[C@@H](O)[C@]1(C)O [Compound 21, Erythromycin A (E)-9-[0-[2-[6-[(2-trifluoromethylphenyl)methylamino]hexylamino]ethyl]oxime]]	0.82	5.95	0.0039	1 (≈ 0.953 µM)	16 (≈ 15.2 µM)	4 (≈ 3.81 µM)	0.0156	2 (≈ 1.91 µM)	0.0078	0.0078
CC[C@H]1OC(=O)[C@H](C)[C@@H](O[C@H]2C[C@@](C)(OC)[C@@H](O)[C@H](C)O2)[C@H](C)[C@@H](O[C@@H]2O[C@H](C)C[C@H](N(C)C)[C@H]2O)[C@](C)(O)C[C@@H](C)/C(=N\OCCNCCCCCCNCc2ccc(OC)cc2)[C@H](C)[C@@H](O)[C@]1(C)O [Compound 17, Erythromycin A (E)-9-[0-[2-[6-[(4-methoxyphenyl)methylamino]hexylamino]ethyl]oxime]]	1.17	8.16	0.0625	0.25 (≈ 0.247 µM)	16 (≈ 15.8 µM)	4 (≈ 3.96 µM)	0.0039	4 (≈ 3.96 µM)	0.0312	0.0625
CC[C@H]1OC(=O)[C@H](C)[C@@H](O[C@H]2C[C@@](C)(OC)[C@@H](O)[C@H](C)O2)[C@H](C)[C@@H](O[C@@H]2O[C@H](C)C[C@H](N(C)C)[C@H]2O)[C@](C)(O)C[C@@H](C)/C(=N\OCCNCCCCCCNCc2cccc([N+](=O)[O-])c2)[C@H](C)[C@@H](O)[C@]1(C)O [Compound 34, Erythromycin A (E)-9-[0-[2-[6-[(3-nitrophenyl)methylamino]hexylamino]ethyl]oxime]]	1.88	6.8	0.0039	0.25 (≈ 0.244 µM)	8 (≈ 7.79 µM)	1 (≈ 0.974 µM)	0.0039	1 (≈ 0.974 µM)	0.0019	0.0078
CC[C@H]1OC(=O)[C@H](C)[C@@H](O[C@H]2C[C@@](C)(OC)[C@@H](O)[C@H](C)O2)[C@H](C)[C@@H](O[C@@H]2O[C@H](C)C[C@H](N(C)C)[C@H]2O)[C@](C)(O)C[C@@H](C)/C(=N\OCCNCCCCCCNCc2ccc(-c3ccccc3)cc2)[C@H](C)[C@@H](O)[C@]1(C)O [Compound 30, Erythromycin A (E)-9-[0-[2-[6-[(biphenyl-4-yl)methylamino]hexylamino]ethyl]oxime]]	19.3	19.3	0.0156	0.5 (≈ 0.473 µM)	2 (≈ 1.89 µM)	1 (≈ 0.946 µM)	0.0078	1 (≈ 0.946 µM)	0.0156	0.0156
CC[C@H]1OC(=O)[C@H](C)[C@@H](O[C@H]2C[C@@](C)(OC)[C@@H](O)[C@H](C)O2)[C@H](C)[C@@H](O[C@@H]2O[C@H](C)C[C@H](N(C)C)[C@H]2O)[C@](C)(O)C[C@@H](C)/C(=N\OCCNCCCCCCNCc2ccc(Oc3ccccc3)cc2)[C@H](C)[C@@H](O)[C@]1(C)O [Compound 29, Erythromycin A (E)-9-[0-[2-[6-[(4-phenoxyphenyl)methylamino]hexylamino]ethyl]oxime]]	7.65	6.1	0.0156	0.5 (≈ 0.466 µM)	2 (≈ 1.86 µM)	1 (≈ 0.932 µM)	0.0039	1 (≈ 0.932 µM)	0.0078	0.0312
CC[C@H]1OC(=O)[C@H](C)[C@@H](O[C@H]2C[C@@](C)(OC)[C@@H](O)[C@H](C)O2)[C@H](C)[C@@H](O[C@@H]2O[C@H](C)C[C@H](N(C)C)[C@H]2O)[C@](C)(O)C[C@@H](C)/C(=N\OCCN(C)CCCCCCN(C)Cc2ccccc2)[C@H](C)[C@@H](O)[C@]1(C)O [Compound 38, Erythromycin A (E)-9-[0-[2-[N-methyl-6-(N'-methyl-N'-phenylmethylamino)hexylamino]ethyl]oxime]]	11.8	11.8	0.0039	0.5 (≈ 0.495 µM)	32 (≈ 31.7 µM)	8 (≈ 7.93 µM)	0.0078	8 (≈ 7.93 µM)	0.0078	0.0156
CC[C@H]1OC(=O)[C@H](C)[C@@H](O[C@H]2C[C@@](C)(OC)[C@@H](O)[C@H](C)O2)[C@H](C)[C@@H](O[C@@H]2O[C@H](C)C[C@H](N(C)C)[C@H]2O)[C@](C)(O)C[C@@H](C)/C(=N\OCCCCCCNCCCCCCNCc2ccccc2)[C@H](C)[C@@H](O)[C@]1(C)O [Compound 6, Erythromycin A (E)-9-[0-[6-[6-(phenylmethylamino)hexylamino]hexyl]oxime]]	–	–	0.0312	0.25 (≈ 0.241 µM)	16 (≈ 15.4 µM)	4 (≈ 3.86 µM)	0.0156	8 (≈ 7.71 µM)	0.0156	0.0312
CC[C@H]1OC(=O)[C@H](C)[C@@H](O[C@H]2C[C@@](C)(OC)[C@@H](O)[C@H](C)O2)[C@H](C)[C@@H](O[C@@H]2O[C@H](C)C[C@H](N(C)C)[C@H]2O)[C@](C)(O)C[C@@H](C)/C(=N\OCCNCCCCCCNCc2ccc(O)c([N+](=O)[O-])c2)[C@H](C)[C@@H](O)[C@]1(C)O [Compound 36, Erythromycin A (E)-9-[0-[2-[6-[(4-hydroxy-3-nitrophenyl)methylamino]hexylamino]ethyl]oxime]]	–	–	0.0625	0.5 (≈ 0.48 µM)	32 (≈ 30.7 µM)	8 (≈ 7.68 µM)	0.0078	16 (≈ 15.4 µM)	0.0625	0.0625
CC[C@H]1OC(=O)[C@H](C)[C@@H](O[C@H]2C[C@@](C)(OC)[C@@H](O)[C@H](C)O2)[C@H](C)[C@@H](O[C@@H]2O[C@H](C)C[C@H](N(C)C)[C@H]2O)[C@](C)(O)C[C@@H](C)/C(=N\OCCNCCCCCCCCNCc2ccccc2)[C@H](C)[C@@H](O)[C@]1(C)O [Compound 9, Erythromycin A (E)-9-[0-[2-[8-(phenylmethyiamino)octylamino]ethyl]oxime]]	–	–	0.0078	0.25 (≈ 0.248 µM)	16 (≈ 15.9 µM)	4 (≈ 3.96 µM)	0.0039	4 (≈ 3.96 µM)	0.0078	0.0078
